Assay results as given in patent US6046169A, “Inhibitors of factor XA” (COR Therapeutics, Inc., priority 1995, dated 2000).
Square brackets hold non-standard residues; d marks the D form. Peptide text beside a SMILES is read from it. * marks the point of attachment. Boc = CC(C)(C)OC(=O)*

What was measured:
cuticle bleeding time = experiment: Cuticle Bleeding Time model in rabbits; type: in vivo, rabbit; conditions: 1500 μg/kg+14.85 μg/kg/min
Protocol: In an ancillary study, a Cuticle Bleeding Time model was used to evaluate the effect of test compounds on bleeding time (BT) measurements in rabbits. The standardized protocol involved anesthesia and catheterization of rabbits as previously described in this Example 43. To measure BT, a toe nail was cut 5 mm from the base of the cuticle with a canine nail trimming device. Time until cessation of bleeding was recorded by wicking the blood on to BT blotting paper in 30 second intervals. Test compound was administered as a bolus followed by infusion regimen. Two BT measurements were obtained prior to administration of test compound and three BT measurements accomplished serially after initiation of steady state infusion of test compound. BT measurements were allowed to continue for up to 30 minutes at which time it was stopped with application of silver nitrate. Blood samples were obtained just prior to all BT measurements and processed for measurement of hematological and coagulation parameters.

[1] = rabbit, in vivo, iv, 2 mg/kg
[2] = tested on: coagulation parameters (aPTT, PT, FIB)
rabbit venous thrombosis [3] = conditions: in vivo
in vivo = conditions: rabbit, iv
rabbit venous thrombosis [4] = experiment: Rabbit deep vein thrombosis model; conditions: bolus + infusion, doses 200 + 1.98 to 1500 + 14.85 μg/kg + μg/kg/min

Structure (SMILES) | changes in hematological parameters from pre to post administration (cuticle bleeding time; cuticle BT experiments) | increase of cuticle BT from pre-administration baseline (cuticle bleeding time; rabbits, n=4, ±1.26) | peak plasma concentration by HPLC [1] | changes in hematological parameters as compared to saline controls ([2]; rabbit, in vivo, iv, 2 mg/kg) | effects on hematological parameters as compared to saline controls (rabbit venous thrombosis [3]) | half-life (in vivo) | Vd (in vivo; 2 mg/kg) | FIB prolongation ([2]; rabbits, I.V. bolus 2.0 mg/kg) | PT prolongation ([2]; rabbits, I.V. bolus 2.0 mg/kg) | aPTT prolongation as compared to pretreatment values ([2]; rabbits, I.V. bolus 2.0 mg/kg) | anticoagulative effect ([2]; rabbits, I.V. bolus 2.0 mg/kg) | antithrombotic efficacy in the rabbit venous thrombosis model (rabbit venous thrombosis [4])
CC(C)(C)OC(=O)N[C@H](CCCN=C(N)N)C(=O)NCC(=O)N[C@H](C=O)CCCN=C(N)N [Boc--D-Arg--Gly--Arg--H, Boc-D-Arg-Gly-Arg-H] (Boc-[dR]-Gly-Arg-aldehyde) | no significant changes | 2.14 fold | 3.78 µg/mL | no significant changes | no significant effects | 1.18 h | 0.118 L/kg |  |  |  |  | 
CC(C)(C)OC(=O)N[C@H](CCCNC(=N)N)C(=O)NCC(=O)N[C@H](C=O)CCCNC(=N)N [Boc--D-Arg--Gly--Arg--H, Boc-D-Arg-Gly-Arg-H] (Boc-[dR]-Gly-Arg-aldehyde) |  |  |  |  |  |  |  | 1.07 fold | 1.15 fold | 2.45 fold | plasma concentration-dependent anticoagulative effect | antithrombotic efficacy at the higher doses evaluated
